From paper PMC11979885, “Mechanistic Investigation into the Phase Separation Behavior of Soluplus in the Presence of Biorelevant Media” (Molecular Pharmaceutics, 2025)
In brackets after ≈: the same amount, converted by molar mass. Like-named read-outs stand apart in the source and are kept apart here.

Legend:
Assay type in all cases: physicochemical
[1] = Equilibrium solubility of crystalline RO6897779 in FaSSIF-V1 with and without Soluplus
Protocol: The solubility of RO6897779 was determined in FaSSIF-V1 and in the presence of previously outlined Soluplus concentrations dissolved in FaSSIF-V1 to determine the apparent degree of supersaturation induced during solvent shift experiments. Samples were prepared by adding an excess amount of RO6897779 (≈5 mg) to 3 mL of the excipient solutions, or neat FaSSIF-V1 medium, and were stirred at 250 rpm at 37 °C (Mixdrive 15, 2MAG, München, Germany). Samples were equilibrated for 48 h. Solid–liquid separation was conducted by centrifugation at 11,500 g for 5 min using Ultrafree centrifugal units. The supernatant was immediately diluted with a 1:1 (v/v) mixture of acetonitrile and deionized water to fall into the linear region of the calibration curve during high-performance liquid chromatography (HPLC), as described under HPLC drug quantification below.
(§1) RO6897779 was quantified using reversed-phase HPLC. An Agilent 1200 series HPLC system (Agilent Technologies Inc., US) equipped with an Agilent Eclipse Plus C18 column (5 μm, 4.6 mm × 150 mm) was used for sample separation. Detection and quantification of RO6897779 were performed by using a variable wavelength detector set to 214 nm. The mobile phase consisted of (A) HPLC-grade deionized water and (B) and acetonitrile both containing 0.1% [v/v] formic acid. […] Data analysis was conducted using Agilent’s OpenLab CDS software Version 2.6.

[2] = Solvent shift supersaturation kinetics of RO6897779 in Soluplus solutions in FaSSIF-V1; details: for apparent degree of supersaturation (aDS) induced: nominal 1 mg mL^–1 drug, FaSSIF-V1, 37 °C
Protocol: Solvent shift experiments were conducted in the Pion microDISS Profiler to assess the supersaturation kinetics of RO6897779 in the presence of Soluplus dissolved in FaSSIF-V1. […] Supersaturation kinetics were assessed at D/P ratios of 10, 20, 30, and 40% corresponding to the polymer concentrations outlined previously. The polymer was dissolved in FaSSIF-V1 at RT and subsequently heated to 37 °C. A concentrated DMSO stock solution was prepared at a concentration of 50 mg mL^–1 RO6897779. From this stock solution, an aliquot of 400 μL was spiked into 19.6 mL of preheated solvent shift medium, so that a nominal concentration of 1 mg mL^–1 RO6897779 was obtained without exceeding DMSO concentrations of 2% [v/v], while assuming a negligible residual solvent influence on solubility.[40] The solutions were stirred at 250 rpm and the temperature was maintained at 37 °C and continuously monitored. At time points of 5, 15, 30, 60, 120, 180, and 240 min, 2 × 200 μL aliquots were withdrawn. […] Subsequently, the supernatant of the media was diluted appropriately with an acetonitrile–water mixture. An intermission of 30 min was introduced as a change in Soluplus phase behavior was expected once the sample reached RT. It was assumed that this intermission would lead to a difference in the sampled concentration of RO6897779.
as §1

[3] = DSC glass forming ability / crystallization tendency classification; details: classification according to Baird et al.
Protocol: The manufactured spray-dried dispersion as well as the neat crystalline drug was investigated in triplicate using DSC to detect the presence of crystalline material and to gain information about the glass transition temperature (Tg) of the materials. For this purpose, a DSC 1 Star system instrument from Mettler-Toledo AG (Greifensee, Switzerland) was used. The instrument was calibrated for temperature and heat flow using indium, and the analysis was performed with an air flow rate of 150 mL min^–1. Samples were weighed into 40 μL aluminum pans (Mettler-Toledo AG, Greifensee, CH), sealed with pierced aluminum lids, and placed into the DSC. The analysis of the spray-dried dispersion was carried out as a heating cycle which heated the sample from RT to 190 °C at 10 K min^–1, followed by cooling down to −50 °C at −20 K min^–1 and finally reheating to 190 °C at 10 K min^–1. The analysis of the neat crystalline drug was carried out according to Baird et al.,[36] to evaluate the glass forming ability of the drug. The second heating ramp was used to measure the Tg without the influence of evaporating moisture.

O=C(OCc1ccc(OC(F)(F)F)cc1)N1C[C@@H]2CN(C(=O)c3ccc4[nH]nnc4c3)C[C@H]2C1 [RO6897779]
solubility at 48 h ([1]; FaSSIF-V1, 37 °C, fassif, thermodynamic from solid, Form I, pH = 6.5 ± 0, read-out: solubility in FaSSIF-V1): 22.9 µg/mL (≈ 48.2 µM)
solubility at 48 h ([1]; FaSSIF-V1 with Soluplus 1.50 mg mL^–1, aqueous with cosolvent or surfactant or cyclodextrin, thermodynamic from solid, FaSSIF-V1, Soluplus 1.50 mg mL^–1 (D/P 40%), 48 h, 37 °C, read-out: solubility): 69 µg/mL (≈ 145 µM)
solubility at 48 h ([1]; FaSSIF-V1 with Soluplus 2.33 mg mL^–1, aqueous with cosolvent or surfactant or cyclodextrin, thermodynamic from solid, FaSSIF-V1, Soluplus 2.33 mg mL^–1 (D/P 30%), 48 h, 37 °C, read-out: solubility): 96.2 µg/mL (≈ 202 µM)
solubility at 48 h ([1]; FaSSIF-V1 with Soluplus 4.00 mg mL^–1, aqueous with cosolvent or surfactant or cyclodextrin, thermodynamic from solid, FaSSIF-V1, Soluplus 4.00 mg mL^–1 (D/P 20%), 48 h, 37 °C, read-out: solubility): 130 µg/mL (≈ 274 µM)
solubility at 48 h ([1]; FaSSIF-V1 with Soluplus 9.00 mg mL^–1, aqueous with cosolvent or surfactant or cyclodextrin, thermodynamic from solid, FaSSIF-V1, Soluplus 9.00 mg mL^–1 (D/P 10%), 48 h, 37 °C, read-out: solubility): 215 µg/mL (≈ 452 µM)
solubility at 48 h ([1]; pH 6.5, thermodynamic from solid, neat FaSSIF-V1, Soluplus 0.00 mg mL^–1 (D/P 100%), 48 h, 37 °C, read-out: solubility): 22.9 µg/mL (≈ 48.2 µM)
apparent degree of supersaturation (aDS) induced ([2]; D/P 10%): 4.65
sampled drug concentration in solvent shift experiment ([2]; D/P 20%, FaSSIF-V1, after immediate centrifugation and after cooling to RT): 150–170 μg mL^–1
apparent degree of supersaturation (aDS) induced ([2]; D/P 20%): 7.7
apparent degree of supersaturation (aDS) induced ([2]; D/P 30%): 10.4
apparent degree of supersaturation (aDS) induced ([2]; D/P 40%): 14.5
crystallization tendency [3]: class III
